# System: not listed separately
# Experiment: Fluorescence titration of sensor with norepinephrine
# Assay type: binding
# Conditions: Table 2, analyte norepinephrine; benzene-based compounds I, excited at 488 nm
# Procedure: (§1) Fluorescence spectra were recorded on a Shimadzu RF-5301 PC spectrofluorometer at 37° C. A 1 mg/mL stock solution of I-2 in DMSO was prepared. A stock solution of I-2 in buffer (1×10^−5 M, 25 mM HEPES, 50 mM Na2S2O3, pH=5.0) was prepared. Norepinephrine, dopamine, epinephrine, and glutamate stock solutions were prepared by separately dissolving the analytes at the concentration to be used in the titration with the buffered stock solution of I-2 (thus avoiding dilution of I-2 during the experiment). I-2 was titrated with aliquots of analyte solution. The sensor was excited at 488 nm with slit widths of 5 nm.
# (§2) Fluorescence spectra were recorded on a Shimadzu RF-5301 PC spectrofluorometer at 37° C. A separate 1 mg/mL stock solution of each coumarin-3-aldehyde derivative in DMSO was prepared. An aqueous stock solution of each derivative (10 μM) in buffer (25 mM HEPES, 50 mM Na2S2O3, pH=5.0) was prepared. Norepinephrine, dopamine, glutamate, and epinephrine stock solutions were prepared by separately dissolving the solid analytes at the concentration to be used in the titration with the buffered stock solutions described above and thus, avoiding dilution of the sensor during the experiment. The benzene-based NS521 derivatives were excited at 488 nm. The thiophene-based derivatives were excited at 515 nm.
row,Structure (SMILES),F.E.
1,CCN(CC)c1ccc2c(-c3cccc4ccccc34)c(C=O)c(=O)oc2c1 [Compound I-10],4.30
2,CCN(CC)c1ccc2c(-c3ccc(SC)cc3)c(C=O)c(=O)oc2c1 [Compound I-11],6.46

# Same assay, conditions: Table 2, analyte norepinephrine; benzene-based compounds I, excited at 488 nm; pH 5.0, 37° C.
row,Structure (SMILES),Ka
1,CCN(CC)c1ccc2c(-c3cccc4ccccc34)c(C=O)c(=O)oc2c1 [Compound I-10],103.56 M⁻¹
2,CCN(CC)c1ccc2c(-c3ccc(SC)cc3)c(C=O)c(=O)oc2c1 [Compound I-11],68.82 M⁻¹

# Same assay, conditions: Table 2, analyte norepinephrine; thiophene-based compounds II, excited at 515 nm
row,Structure (SMILES),F.E.
1,CCN(CC)c1ccc2c(-c3cccs3)c(C=O)c(=O)oc2c1 [II-1],47.95
2,CCN(CC)c1ccc2c(-c3ccc(C)s3)c(C=O)c(=O)oc2c1 [II-2],32.35
3,CCN(CC)c1ccc2c(-c3cc(C)cs3)c(C=O)c(=O)oc2c1 [II-3],38.35
4,CCN(CC)c1ccc2c(-c3ccc(Cl)s3)c(C=O)c(=O)oc2c1 [II-4],20.78
5,CCN(CC)c1ccc2c(-c3cc4ccccc4s3)c(C=O)c(=O)oc2c1 [II-5],16.62

# Same assay, conditions: Table 2, analyte norepinephrine; thiophene-based compounds II, excited at 515 nm; pH 5.0, 37° C.
row,Structure (SMILES),Ka
1,CCN(CC)c1ccc2c(-c3cccs3)c(C=O)c(=O)oc2c1 [II-1],65.15 M⁻¹
2,CCN(CC)c1ccc2c(-c3ccc(C)s3)c(C=O)c(=O)oc2c1 [II-2],58.72 M⁻¹
3,CCN(CC)c1ccc2c(-c3cc(C)cs3)c(C=O)c(=O)oc2c1 [II-3],63.65 M⁻¹
4,CCN(CC)c1ccc2c(-c3ccc(Cl)s3)c(C=O)c(=O)oc2c1 [II-4],69.25 M⁻¹
5,CCN(CC)c1ccc2c(-c3cc4ccccc4s3)c(C=O)c(=O)oc2c1 [II-5],49.65 M⁻¹

# System: not listed separately
# Experiment: Fluorescence titration of sensor with dopamine
# Assay type: binding
# Conditions: Table 2, analyte dopamine; benzene-based compounds I, excited at 488 nm
# Procedure: as §1, §2
row,Structure (SMILES),F.E.
1,CCN(CC)c1ccc2c(-c3cccc4ccccc34)c(C=O)c(=O)oc2c1 [Compound I-10],2.86
2,CCN(CC)c1ccc2c(-c3ccc(SC)cc3)c(C=O)c(=O)oc2c1 [Compound I-11],3.10

# Same assay, conditions: Table 2, analyte dopamine; benzene-based compounds I, excited at 488 nm; pH 5.0, 37° C.
row,Structure (SMILES),Ka
1,CCN(CC)c1ccc2c(-c3cccc4ccccc34)c(C=O)c(=O)oc2c1 [Compound I-10],170.10 M⁻¹
2,CCN(CC)c1ccc2c(-c3ccc(SC)cc3)c(C=O)c(=O)oc2c1 [Compound I-11],87.11 M⁻¹

# Same assay, conditions: Table 2, analyte dopamine; thiophene-based compounds II, excited at 515 nm
row,Structure (SMILES),F.E.
1,CCN(CC)c1ccc2c(-c3cccs3)c(C=O)c(=O)oc2c1 [II-1],25.42
2,CCN(CC)c1ccc2c(-c3ccc(C)s3)c(C=O)c(=O)oc2c1 [II-2],22.18
3,CCN(CC)c1ccc2c(-c3cc(C)cs3)c(C=O)c(=O)oc2c1 [II-3],23.41
4,CCN(CC)c1ccc2c(-c3ccc(Cl)s3)c(C=O)c(=O)oc2c1 [II-4],12.39
5,CCN(CC)c1ccc2c(-c3cc4ccccc4s3)c(C=O)c(=O)oc2c1 [II-5],9.53

# Same assay, conditions: Table 2, analyte dopamine; thiophene-based compounds II, excited at 515 nm; pH 5.0, 37° C.
row,Structure (SMILES),Ka
1,CCN(CC)c1ccc2c(-c3cccs3)c(C=O)c(=O)oc2c1 [II-1],43.55 M⁻¹
2,CCN(CC)c1ccc2c(-c3ccc(C)s3)c(C=O)c(=O)oc2c1 [II-2],54.61 M⁻¹
3,CCN(CC)c1ccc2c(-c3cc(C)cs3)c(C=O)c(=O)oc2c1 [II-3],51.10 M⁻¹
4,CCN(CC)c1ccc2c(-c3ccc(Cl)s3)c(C=O)c(=O)oc2c1 [II-4],83.96 M⁻¹
5,CCN(CC)c1ccc2c(-c3cc4ccccc4s3)c(C=O)c(=O)oc2c1 [II-5],49.26 M⁻¹

# System: not listed separately
# Experiment: Fluorescence titration of sensor with glutamate
# Assay type: binding
# Conditions: Table 2, analyte glutamate; benzene-based compounds I, excited at 488 nm
# Procedure: as §1, §2
row,Structure (SMILES),F.E.
1,CCN(CC)c1ccc2c(-c3cccc4ccccc34)c(C=O)c(=O)oc2c1 [Compound I-10],6.81
2,CCN(CC)c1ccc2c(-c3ccc(SC)cc3)c(C=O)c(=O)oc2c1 [Compound I-11],9.76

# Same assay, conditions: Table 2, analyte glutamate; benzene-based compounds I, excited at 488 nm; pH 5.0, 37° C.
row,Structure (SMILES),Ka
1,CCN(CC)c1ccc2c(-c3cccc4ccccc34)c(C=O)c(=O)oc2c1 [Compound I-10],10.08 M⁻¹
2,CCN(CC)c1ccc2c(-c3ccc(SC)cc3)c(C=O)c(=O)oc2c1 [Compound I-11],8.40 M⁻¹

# Same assay, conditions: Table 2, analyte glutamate; thiophene-based compounds II, excited at 515 nm
row,Structure (SMILES),F.E.
1,CCN(CC)c1ccc2c(-c3cccs3)c(C=O)c(=O)oc2c1 [II-1],57.17
2,CCN(CC)c1ccc2c(-c3ccc(C)s3)c(C=O)c(=O)oc2c1 [II-2],47.67
3,CCN(CC)c1ccc2c(-c3cc(C)cs3)c(C=O)c(=O)oc2c1 [II-3],51.15
4,CCN(CC)c1ccc2c(-c3ccc(Cl)s3)c(C=O)c(=O)oc2c1 [II-4],33.96
5,CCN(CC)c1ccc2c(-c3cc4ccccc4s3)c(C=O)c(=O)oc2c1 [II-5],29.65

# Same assay, conditions: Table 2, analyte glutamate; thiophene-based compounds II, excited at 515 nm; pH 5.0, 37° C.
row,Structure (SMILES),Ka
1,CCN(CC)c1ccc2c(-c3cccs3)c(C=O)c(=O)oc2c1 [II-1],7.32 M⁻¹
2,CCN(CC)c1ccc2c(-c3ccc(C)s3)c(C=O)c(=O)oc2c1 [II-2],6.11 M⁻¹
3,CCN(CC)c1ccc2c(-c3cc(C)cs3)c(C=O)c(=O)oc2c1 [II-3],7.40 M⁻¹
4,CCN(CC)c1ccc2c(-c3ccc(Cl)s3)c(C=O)c(=O)oc2c1 [II-4],5.90 M⁻¹
5,CCN(CC)c1ccc2c(-c3cc4ccccc4s3)c(C=O)c(=O)oc2c1 [II-5],5.25 M⁻¹

# System: norepinephrine-enriched chromaffin cells
# Experiment: Live-cell confocal imaging with NS539, norepinephrine-enriched cells
# Assay type: cell-based, bovine
# Conditions: 10 μM
# Procedure: (§3) Norepinephrine- and epinephrine-secreting chromaffin cells were isolated from bovine adrenal glands, separately incubated with NS539 (2b, 10 μM), and imaged using confocal fluorescence microscopy. The live cells were imaged at 458 nm which would excite any potential unbound sensor and at 514 nm which would excite the bound sensor. […] The ratio of the mean corrected total cell fluorescence intensity of norepinephrine- over epinephrine-enriched cells was approximately 27-fold (FIG. 19G).
# (§4) Chromaffin cells were prepared as previously described. Approximately 3 mL of each culture media containing suspended epinephrine- and norepinephrine-enriched cells was centrifuged at 1,000 rpm for 5 min. The pellets were suspended in 2 mL Dulbecco's Modified Eagle Medium (DMEM). NS539 was added (10 μM final concentration) and each cell suspension containing sensor incubated at 37° C. for 30 min. The cells were centrifuged, the supernatant removed, and washed twice with PBS buffer. Next, the cells were taken up into 6 mL standard cell bath solution and plated onto No. 1.5 γ-irradiated poly-D-lysine coated 35 mm glass-bottom dishes (MatTek Corporation). The cells incubated on the dishes 37° C. with 5% CO2 for 1 hr prior to imaging to promote adhesion. Live cell imaging studies were performed using a Zeiss LSM 510 META laser scanning confocal microscope (Carl Zeiss Microscopy, LLC) equipped with a C-Apochromat 63x/1.2 water immersion objective lens (Carl Zeiss Microscopy, LLC). The excitation wavelengths were 458 nm and 514 nm (pixel time: 6.4 μs, detector gain: 845, amplifier gain: 1.00, amplifier offset: −0.05, pinhole: 328 μm). Image acquisition was performed using Zeiss AIM 4.2 software package (Carl Zeiss Microscopy, LLC). To compare the fluorescence intensities of the norepinephrine- vs. the epinephrine-enriched cells, the mean corrected total cell fluorescence intensities were obtained using ImageJ (National Institute of Health).
row,Structure (SMILES),ratio of mean corrected total cell fluorescence intensity of norepinephrine- over epinephrine-enriched cells
1,CCN(CC)c1ccc2c(-c3cccs3)c(C=O)c(=O)oc2c1 [II-1],approximately 27 fold

# Same assay, conditions: 10 μM; excitation at 514 nm (bound sensor)
row,Structure (SMILES),"cell fluorescence, confocal microscopy"
1,CCN(CC)c1ccc2c(-c3cccs3)c(C=O)c(=O)oc2c1 [II-1],strong punctate fluorescence

# Same assay, conditions: 10 μM; ± standard deviation (n=6); 535-590 nm bandpass filter
row,Structure (SMILES),mean corrected total cell fluorescence intensity
1,CCN(CC)c1ccc2c(-c3cccs3)c(C=O)c(=O)oc2c1 [II-1],51.0±2.6

# Same assay, conditions: 10 μM; λex = 458 nm (unbound sensor)
row,Structure (SMILES),"cell fluorescence, confocal microscopy"
1,CCN(CC)c1ccc2c(-c3cccs3)c(C=O)c(=O)oc2c1 [II-1],no measurable fluorescence response

# System: epinephrine-enriched chromaffin cells
# Experiment: Live-cell confocal imaging with NS539, epinephrine-enriched cells
# Assay type: cell-based, bovine
# Conditions: 10 μM; excitation at 458 nm (unbound sensor)
# Procedure: as §3, §4
row,Structure (SMILES),"cell fluorescence, confocal microscopy"
1,CCN(CC)c1ccc2c(-c3cccs3)c(C=O)c(=O)oc2c1 [II-1],no fluorescence

# Same assay, conditions: 10 μM; excitation at 514 nm (bound sensor)
row,Structure (SMILES),"cell fluorescence, confocal microscopy"
1,CCN(CC)c1ccc2c(-c3cccs3)c(C=O)c(=O)oc2c1 [II-1],marginal fluorescence response

# Same assay, conditions: 10 μM; ± standard deviation (n=6); 535-590 nm bandpass filter
row,Structure (SMILES),mean corrected total cell fluorescence intensity
1,CCN(CC)c1ccc2c(-c3cccs3)c(C=O)c(=O)oc2c1 [II-1],1.86±0.98

# System: not given
# Experiment: not given
# Conditions: 1.0 μM in water (pH 7); fluorescence standard; cited from earlier work
row,Structure (SMILES),absolute Φfl
1,CCN(CC)c1ccc2c(-c3ccccc3C(=O)O)c3ccc(=[N+](CC)CC)cc-3oc2c1.[Cl-] [rhodamine B],0.31

# System: not given
# Experiment: not given
# Conditions: sensor of U.S. Pat. No. 7,977,120 B2; quenched by catechol group; cited from earlier work
row,Structure (SMILES),mode of fluorescence response
1,CCN(CC)c1ccc2c(CCCCCN(C)Cc3ccccc3B(O)O)c(C=O)c(=O)oc2c1 ['120 sensor],turn-off mode

# Source: patent publication US10330673B2, “Fluorescent chemical sensor for biological amines” (The Curators of the University of Missouri, priority 2013, dated 2019)
